Measurements published in patent US20050180921A1, “Contrast agents to improve gastrointestinal tract opacification during abdominal and pelvic CT scans” (priority 2004, published 2005).

Test system: gastrointestinal tract
Experiment: CT of abdomen and pelvis after oral agent: bowel distension, wall visualization, transit to colon
Type: in vivo, human
Procedure: Institutional review board approval was obtained. These materials were offered to outpatients (ranging from 18 to 89 years of age) in random fashion. In each case, the patient was given literature to explain the project and then asked to sign a consent form. Those who declined participation in the study were given dilute iodinated contrast or water as appropriate for the exam. […] The amount of each material, 1600 cc, and timing, approximately 60 minutes, were standard for the preparation protocol used with dilute iodinated contrast. Although scanning parameters varied slightly, depending on the clinical question, all patients received 5 mm or less slices through the abdomen and pelvis. […] Where given, the intravenous contrast agent was administered from 3-5 cc/sec for 100-150 cc of 300 mg % non-ionic contrast.
Each drink was labeled with a letter A-E to blind the administered substance to the reader. […] Each CT scan was read by consensus by two readers. Each exam was rated for various characteristics. The stomach was rated for distention: 1=well distended; 2=adequate distention; 3=poor distention. The small bowel was rated for two characteristics. The distention was assessed with measurements taken from the left upper quadrant (LUQ), the pelvis, and the right lower quadrant (RLQ) areas. Three measures were taken at each area with the greatest diameters used. The diameters were then averaged. The definition of the bowel wall was also graded using visualization of the wall separate from the luminal contents as well as the ability to appreciate the valvulae conniventes when present (1=excellent, 2=good, 3=fair, 4=poor, 5=non-diagnostic). Finally, an attempt was made to assess whether the ingested liquid was able to reach the colon during the preparation time period (0=no oral contrast in colon, 1=oral contrast in colon).

SMILES: O [Water, water]
- LUQ small bowel distention (averaged greatest diameters) (1600 cc oral, approximately 60 minutes, left upper quadrant, group mean): 17.50 mm
- Pelvis small bowel distention (averaged greatest diameters) (1600 cc oral, approximately 60 minutes, pelvis, group mean): 14.79 mm
- RLQ small bowel distention (averaged greatest diameters) (1600 cc oral, approximately 60 minutes, right lower quadrant, group mean): 14.14 mm
- mid to distal / small bowel distention, result in words (FIGS. 2A-2D and study in general): least effective
- Wall (definition of the bowel wall, qualitative evaluation) (mean grade, 1=excellent, 2=good, 3=fair, 4=poor, 5=non-diagnostic): 2.23
- Stomach (distention, qualitative evaluation) (mean grade, 1=well distended, 2=adequate distention, 3=poor distention): 2.13
- Colon (ingested liquid reached the colon during preparation time) (mean, 0=no oral contrast in colon, 1=oral contrast in colon): .020
